Earlier results, collected in US10328111B2, “Water-soluble phytocannabinoid formulations” (Solva, LLC, priority 2014, dated 2019).

In the case of C=C(C)[C@@H]1CCC(C)=C[C@H]1c1c(O)cc(CCCCC)cc1O [cannabidiol], the oral bioavailability is listed as “about 6%”.
